Measurements: publication PMC4111866, “Enhancement in corneal permeability of riboflavin using calcium sequestering compounds” (International Journal of Pharmaceutics, 2014)
Entries after “also recorded” stand apart in the source; their conditions may differ.

How the values were obtained:
bovine cornea [1] = assay: Whole eye experiment: Ca^2+ extraction from cornea, analysed by atomic absorption spectrometry; conditions: chelator 1 mg mL^−1 in PBS pH 7.4 ± 0.2, 3 h exposure of whole bovine eye cornea, 34 °C, n = 3; PBS alone 54.67 ± 7.04 ppm
Method: Calcium ion analysis was conducted using a novAA 350 system with […] software, version 4.5.0 (Analytik JENA, Germany). […] Quantitation achieved by reference to a calibration curve produced from Ca^2+ standards in ultrapure water incorporating 5% w/v lanthanum chloride as a releasing agent.

bovine cornea epithelium = assay: Corneal integrity: fluorescence microscopy of DAPI-stained cornea sections after exposure; conditions: chelator 1 mg mL^−1 in PBS pH 7.4 ± 0.2, 3 h exposure; PBS shows no disruption
Method: A Franz diffusion cell donor chamber was placed on the cornea as a means to contain the dose; the setup was wrapped in cling-film ensuring a good seal between the donor chamber and the cornea; these were placed in a water bath at 34 ± 1 °C. Individual eyes were exposed to PBS or solutions of EDTA, EGTA or EDDS at 1 mg mL^−1 in PBS, all at pH 7.4 ± 0.2 by placing 1 mL solution onto the cornea.
From the above experiment, corneas were dissected after exposure, and sections were prepared for microscopy by setting cornea segments in OCT, quick freezing on dry ice and subsequent sectioning. […] Specimens were stained using Vectashield with DAPI mounting medium, and a glass coverslip applied. All cornea sections were examined within seven days of preparation using an AXIOCAM MRm 1.3 MP digital camera attached to a Zeiss AXIO Imager A1 fluorescent microscope, using AXIO Vs 40 V.4.8.2.0 software (Zeiss, Oberkochen, Germany). A 10× magnification eyepiece together with a 5× magnification objective lens was employed, and DAPI fluorescence filter was selected.

bovine cornea [2] = assay: Transepithelial electrical resistance (TEER) of cornea in Ussing chambers; conditions: chelator 1 mg mL^−1 in PBS in donor chamber, 120 min, 34 °C, baseline deducted; initial 2.28 ± 0.06, PBS control 1.93 ± 0.04
bovine cornea [3] = assay: Cornea extracts: riboflavin absorbed into cornea, ethanol extraction and HPLC; format: in vitro ADME; conditions: n = 3; for Riboflavin pg mg^−1 cornea: riboflavin in PBS pH 7.4 ± 0.2 without chelator
Method: Analysis was conducted using a PerkinElmer series 200 HPLC system comprising of 785 A UV–vis detector, series 200 quaternary pump and series 200 autosampler (PerkinElmer Inc., UK), Hamilton PRP-1 reversed phase column, 150 mm × 4.1 mm, 10 μm (part number: 79425) and data acquisition software (Peaksimple, version 4.09, SRI Inc., USA). […] Isocratic conditions were used at 25 °C with the mobile phase comprising of 20% ethanol and 80% ion-pair buffer, flow rate 0.8 mL min^−1, 10 μL injection volume, UV detector at 267 nm corresponding to riboflavin absorption λmax, a retention time of 3.05 min. Quantitation was achieved by reference to a calibration curve produced from riboflavin standards in PBS, pH 7.4 ± 0.2 at concentrations ranging from 0.01 to 25 μg mL^−1 (r^2 = 0.9996).
Corneas from the riboflavin permeability experiment were trimmed of sclera, gently blotted with tissue paper, weighed and placed in glass vials to which 5 mL absolute ethanol was added to extract absorbed riboflavin. Differences in its accumulation within the corneas between different solutions were compared. The vials were stored at room temperature shielded from light for three days. From these vials, 1 mL of extract solvent was centrifuged at 10,000 rpm for 10 min, and the supernatant transferred to autosample vials for HPLC analysis.

[4] = Corneal permeability of riboflavin in Franz diffusion cells; format: in vitro ADME, bovine; design: Steady-state flux of riboflavin / Papp at 240 min: dose or concentration left out as unconfirmed; conditions: bovine, pH 7.4
Method: (§1) Analysis was conducted using a PerkinElmer series 200 HPLC system comprising of 785 A UV-vis detector, series 200 quaternary pump and series 200 autosampler (PerkinElmer Inc., UK), Hamilton PRP-1 reversed phase column, 150 mm × 4.1 mm, 10 μm (part number: 79425) and data acquisition software ([…], version 4.09, SRI Inc., USA). […] Bovine corneas were mounted in Franz diffusion cells (FDC), epithelium side facing the donor compartment. The receiver compartment was filled with pre-warmed and degassed PBS (16.5 mL). […] Riboflavin is known to be photodegradable ([Terekhova et al., 2011]), therefore the whole experiment was shielded with aluminium foil. Sink conditions were employed with 0.4 mL aliquots taken every 60 min for 240 min. HPLC analysis was carried out immediately after all samples had been collected to avoid drug degradation.

bovine cornea [5] = assay: as above; format: in vitro ADME; design: Steady-state flux of riboflavin / Papp at 240 min: dose or concentration left out as unconfirmed
Method: as §1

SMILES	calcium sequestering performance from bovine cornea (Ca^2+ concentration in solution) (bovine cornea [1])	histological changes of corneal epithelium (bovine cornea epithelium)	TEER value after 2 h (bovine cornea [2])	mean amount of riboflavin extracted from cornea (bovine cornea [3]; corneas after permeability experiment, riboflavin 0.1 mg mL^−1 in PBS without chelator)	Riboflavin pg mg^−1 cornea (bovine cornea [3])	Riboflavin pg mg^−1 cornea (bovine cornea [3]; listed as riboflavin)	Papp at 240 min [4]	concentration of riboflavin in the receiving solution at 240 min (bovine cornea [5]; riboflavin 0.1 mg mL^−1 in PBS pH 7.4 without chelator, 34 °C)	Steady-state flux of riboflavin (bovine cornea [5]; riboflavin solution in PBS without chelator)
O=C(O)CN(CCN(CC(=O)O)CC(=O)O)CC(=O)O [EDTA, Ethylenediaminetetraacetic acid]	98.97 ± 9.86 ppm	some swelling with voids throughout this layer; also recorded: perforation seems to penetrate the whole of the epithelium	1.38 ± 0.03 kΩ cm^2						
O=C(O)CN(CCOCCOCCN(CC(=O)O)CC(=O)O)CC(=O)O [EGTA, ethylene glycol-bis(2-aminoethylether)-N,N,N′,N′-tetraacetic acid]	119.57 ± 27.28 ppm	intense disruption to the superficial epithelial layers and a relatively undisturbed basal layer	1.42 ± 0.02 kΩ cm^2						
Cc1cc2nc3c(=O)[nH]c(=O)nc-3n(C[C@H](O)[C@H](O)[C@H](O)CO)c2cc1C [Riboflavin, riboflavin]				50.41 ± 2.80 ng	62.46 ± 0.98 pg/mg	62.46 pg/mg	1940 ± 325 ×10⁻⁶ cm/s	5.74 ± 0.96 ng/mL	0.0478 ± 0.0080 µmol/min
O=C(O)CC(NCCNC(CC(=O)O)C(=O)O)C(=O)O (stereo not drawn) [EDDS, ethylenediamine-N,N′-disuccinic acid]	87.60 ± 3.30 ppm	some swelling with voids throughout this layer	1.62 ± 0.04 kΩ cm^2						
